Assay results taken from patent US20220054513A1, “COMBINATION COMPOSITIONS COMPRISING A BETA-LACTAMASE INHIBITOR” (VenatoRx Pharmaceuticals, Inc., priority 2018, published 2022).
Read-outs that look alike come from different tables or passages of the source.

What was measured:
[1] = tested on: multi-drug resistant Acinetobacter baumannii; test: broth microdilution MIC of sulbactam, ampicillin, cefepime and combinations +/- Compound 1, panel of 51 Acinetobacter isolates
[2] = tested on: Acinetobacter baumannii-calcoaceticus species complex clinical isolates; test: MIC of triple combinations (Compound 1, sulbactam, meropenem or cefepime), 141 clinical isolates; type: cell-based; details: Acinetobacter
Excerpt: For a more comprehensive assessment of the ability of test compounds to potentiate sulbactam in triple combinations with β-lactams additional MIC assays were utilized.

SMILES: CC1(C)[C@H](C(=O)O)N2C(=O)C[C@H]2S1(=O)=O [SUL, Sulbactam]
- MIC50 [1]: 16 mg/L
- MIC90 [1]: 64 mg/L
- MIC ([1]; read-out: Minimum inhibitory concentration (MIC), strain 0273 (ADC-25, OXA-23, OXA-66)): 32 mg/L
- MIC ([1]; read-out: Minimum inhibitory concentration (MIC), strain 0274 (TEM-1D, ADC-25, OXA-66, OXA-72)): 64 mg/L
- MIC ([1]; read-out: Minimum inhibitory concentration (MIC), strain 0275 (TEM-1D, ADC-25, OXA-23, OXA-66)): 64 mg/L
- MIC ([1]; read-out: Minimum inhibitory concentration (MIC), strain 0276 (enzyme content ND)): 8 mg/L
- MIC ([1]; read-out: Minimum inhibitory concentration (MIC), strain 0277 (TEM-1B, OXA-65, OXA-24)): 32 mg/L
- MIC ([1]; read-out: Minimum inhibitory concentration (MIC), strain 0278 (TEM-1D, ADC-25, OXA-23, OXA-66)): 32 mg/L
- MIC ([1]; read-out: Minimum inhibitory concentration (MIC), strain 0279 (TEM-1D, ADC-25, OXA-23, OXA-66)): 32 mg/L
- MIC ([1]; read-out: Minimum inhibitory concentration (MIC), strain 0280 (TEM-1D, ADC-25, OXA-66)): 128 mg/L
- MIC ([1]; read-out: Minimum inhibitory concentration (MIC), strain 0281 (TEM-1D, ADC-25, OXA-82)): 32 mg/L
- MIC ([1]; read-out: Minimum inhibitory concentration (MIC), strain 0282 (TEM-1D, ADC-25, OXA-23, OXA-66)): 32 mg/L
- MIC ([1]; read-out: Minimum inhibitory concentration (MIC), strain 0283 (TEM-1D, ADC-25, OXA-23, OXA-66)): 16 mg/L
- MIC ([1]; read-out: Minimum inhibitory concentration (MIC), strain 0284 (TEM-1B, OXA-65, OXA-24)): 32 mg/L
- MIC ([1]; read-out: Minimum inhibitory concentration (MIC), strain 0285 (TEM-1B, OXA-65, OXA-24)): 16 mg/L
- MIC ([1]; read-out: Minimum inhibitory concentration (MIC), strain 0286 (ADC-25, OXA-66, OXA-24)): 16 mg/L
- MIC ([1]; read-out: Minimum inhibitory concentration (MIC), strain 0287 (ADC-25, OXA-66, OXA-72)): 64 mg/L
- MIC ([1]; read-out: Minimum inhibitory concentration (MIC), strain 0288 (ADC-25, OXA-23, OXA-66)): 32 mg/L
- MIC ([1]; read-out: Minimum inhibitory concentration (MIC), strain 0289 (ADC-25, OXA-66, OXA-72)): 16 mg/L
- MIC ([1]; read-out: Minimum inhibitory concentration (MIC), strain 0290 (TEM-1D, ADC-25, OXA-23, OXA-66)): 32 mg/L
- MIC ([1]; read-out: Minimum inhibitory concentration (MIC), strain 0291 (TEM-1D, ADC-25, OXA-23, OXA-66)): 16 mg/L
- MIC ([1]; read-out: Minimum inhibitory concentration (MIC), strain 0292 (OXA-66, OXA-72)): 32 mg/L
- MIC ([1]; read-out: Minimum inhibitory concentration (MIC), strain 0293 (OXA-66, OXA-72)): 16 mg/L
- MIC ([1]; read-out: Minimum inhibitory concentration (MIC), strain 0294 (TEM-1B, OXA-23, OXA-65)): 16 mg/L
- MIC ([1]; read-out: Minimum inhibitory concentration (MIC), strain 0295 (TEM-1D, ADC-25, OXA-23, OXA-66)): 32 mg/L
- MIC ([1]; read-out: Minimum inhibitory concentration (MIC), strain 0296 (ADC-25, OXA-23, OXA-223)): 64 mg/L
- MIC ([1]; read-out: Minimum inhibitory concentration (MIC), strain 0297 (ADC-25, OXA-23, OXA-66)): 8 mg/L
- MIC ([1]; read-out: Minimum inhibitory concentration (MIC), strain 0298 (TEM-1D, ADC-25, OXA-66, OXA-237)): 32 mg/L
- MIC ([1]; read-out: Minimum inhibitory concentration (MIC), strain 0299 (PER-7, OXA-23, OXA-203)): 32 mg/L
- MIC ([1]; read-out: Minimum inhibitory concentration (MIC), strain 0300 (ADC-25, OXA-66)): 2 mg/L
- MIC ([1]; read-out: Minimum inhibitory concentration (MIC), strain 0301 (ADC-25, OXA-66, OXA-72)): 16 mg/L
- MIC ([1]; read-out: Minimum inhibitory concentration (MIC), strain 0302 (OXA-23, OXA-82)): 32 mg/L
- MIC ([1]; read-out: Minimum inhibitory concentration (MIC), strain 0303 (ADC-25, OXA-23, OXA-66)): 8 mg/L
- MIC ([1]; read-out: Minimum inhibitory concentration (MIC), strain 0304 (ADC-25, OXA-66, OXA-72)): 8 mg/L
- MIC ([1]; read-out: Minimum inhibitory concentration (MIC), strain 0305 (TEM-1B, OXA-65, OXA-24)): 8 mg/L
- MIC ([1]; read-out: Minimum inhibitory concentration (MIC), strain 0306 (TEM-1B, OXA-65, OXA-24)): 64 mg/L
- MIC ([1]; read-out: Minimum inhibitory concentration (MIC), strain 0307 (ADC-25, OXA-66, OXA-237)): 4 mg/L
- MIC ([1]; read-out: Minimum inhibitory concentration (MIC), strain 0308 (TEM-1D, ADC-25, OXA-71)): 32 mg/L
- MIC ([1]; read-out: Minimum inhibitory concentration (MIC), strain 0309 (OXA-23, OXA-82)): 8 mg/L
- MIC ([1]; read-out: Minimum inhibitory concentration (MIC), strain 0310 (OXA-23, OXA-82)): 32 mg/L
- MIC ([1]; read-out: Minimum inhibitory concentration (MIC), strain 0311 (ADC-25, OXA-23, OXA-82)): 16 mg/L
- MIC ([1]; read-out: Minimum inhibitory concentration (MIC), strain 0312 (OXA-69)): 4 mg/L
- MIC ([1]; read-out: Minimum inhibitory concentration (MIC), strain 0313 (TEM-1D, OXA-23, OXA-69)): 32 mg/L
- MIC ([1]; read-out: Minimum inhibitory concentration (MIC), strain 157834 (enzyme content ND)): 2 mg/L
- MIC ([1]; read-out: Minimum inhibitory concentration (MIC), strain 157842 (enzyme content ND)): 2 mg/L
- MIC ([1]; read-out: Minimum inhibitory concentration (MIC), strain 157876 (enzyme content ND)): 4 mg/L
- MIC ([1]; read-out: Minimum inhibitory concentration (MIC), strain 157901 (enzyme content ND)): 16 mg/L
- MIC ([1]; read-out: Minimum inhibitory concentration (MIC), strain 161750 (enzyme content ND)): 8 mg/L
- MIC ([1]; read-out: Minimum inhibitory concentration (MIC), strain 161752 (enzyme content ND)): 4 mg/L
- MIC ([1]; read-out: Minimum inhibitory concentration (MIC), strain 161755 (enzyme content ND)): 4 mg/L
- MIC ([1]; read-out: Minimum inhibitory concentration (MIC), strain 161756 (enzyme content ND)): 2 mg/L
- MIC ([1]; read-out: Minimum inhibitory concentration (MIC), strain 161760 (enzyme content ND)): 16 mg/L
- MIC ([1]; read-out: Minimum inhibitory concentration (MIC), strain 161762 (enzyme content ND)): 4 mg/L
- MIC [2]: 128 mg/L
- MIC ([2]; strain 990089, Cmpd 1 at 4 μg/mL in combinations): 16 mg/L
- MIC ([2]; strain 993131, Cmpd 1 at 4 μg/mL in combinations): 32 mg/L
- MIC ([2]; strain 993139, Cmpd 1 at 4 μg/mL in combinations): 32 mg/L
- MIC ([2]; strain 994180, Cmpd 1 at 4 μg/mL in combinations): 16 mg/L
- MIC ([2]; strain 994181, Cmpd 1 at 4 μg/mL in combinations): 16 mg/L
- MIC ([2]; strain 995771, Cmpd 1 at 4 μg/mL in combinations): 16 mg/L
- MIC ([2]; strain 996612, Cmpd 1 at 4 μg/mL in combinations): 64 mg/L
- MIC ([2]; strain 996707, Cmpd 1 at 4 μg/mL in combinations): 32 mg/L
- MIC ([2]; strain 996869, Cmpd 1 at 4 μg/mL in combinations): 32 mg/L
- MIC ([2]; strain 997574, Cmpd 1 at 4 μg/mL in combinations): 32 mg/L
- MIC ([2]; strain 998107, Cmpd 1 at 4 μg/mL in combinations): 16 mg/L
- MIC ([2]; strain 998532, Cmpd 1 at 4 μg/mL in combinations): 16 mg/L
- MIC ([2]; strain 998898, Cmpd 1 at 4 μg/mL in combinations): 64 mg/L
- MIC ([2]; strain 998907, Cmpd 1 at 4 μg/mL in combinations): 32 mg/L
- MIC ([2]; strain 999306, Cmpd 1 at 4 μg/mL in combinations): 8 mg/L
- MIC ([2]; strain 999343, Cmpd 1 at 4 μg/mL in combinations): 32 mg/L
- MIC ([2]; strain 1001007, Cmpd 1 at 4 μg/mL in combinations): 32 mg/L
- MIC ([2]; strain 1001143, Cmpd 1 at 4 μg/mL in combinations): 32 mg/L
- MIC ([2]; strain 1001611, Cmpd 1 at 4 μg/mL in combinations): 16 mg/L
- MIC ([2]; strain 1002208, Cmpd 1 at 4 μg/mL in combinations): 16 mg/L
- MIC ([2]; strain 1002247, Cmpd 1 at 4 μg/mL in combinations): 64 mg/L
- MIC ([2]; strain 1002688, Cmpd 1 at 4 μg/mL in combinations): 16 mg/L
- MIC ([2]; strain 1002952, Cmpd 1 at 4 μg/mL in combinations): 64 mg/L
- MIC ([2]; strain 1003557, Cmpd 1 at 4 μg/mL in combinations): 8 mg/L
- MIC ([2]; strain 1003662, Cmpd 1 at 4 μg/mL in combinations): 16 mg/L
- MIC ([2]; strain 1003787, Cmpd 1 at 4 μg/mL in combinations): 32 mg/L
- MIC ([2]; strain 1004867, Cmpd 1 at 4 μg/mL in combinations): 64 mg/L
- MIC ([2]; strain 1005265, Cmpd 1 at 4 μg/mL in combinations): 32 mg/L
- MIC ([2]; strain 1005290, Cmpd 1 at 4 μg/mL in combinations): 16 mg/L
- MIC ([2]; strain 1007660, Cmpd 1 at 4 μg/mL in combinations): 32 mg/L
- MIC ([2]; strain 1008508, Cmpd 1 at 4 μg/mL in combinations): 16 mg/L
- MIC ([2]; strain 1008510, Cmpd 1 at 4 μg/mL in combinations): 32 mg/L
- MIC ([2]; strain 1008730, Cmpd 1 at 4 μg/mL in combinations): 32 mg/L
- MIC ([2]; strain 1008756, Cmpd 1 at 4 μg/mL in combinations): 64 mg/L
- MIC ([2]; strain 1010245, Cmpd 1 at 4 μg/mL in combinations): 16 mg/L
- MIC ([2]; strain 1010383, Cmpd 1 at 4 μg/mL in combinations): 32 mg/L
- MIC ([2]; strain 1011959, Cmpd 1 at 4 μg/mL in combinations): 16 mg/L
- MIC ([2]; strain 1013022, Cmpd 1 at 4 μg/mL in combinations): 8 mg/L
- MIC ([2]; strain 1013035, Cmpd 1 at 4 μg/mL in combinations): 16 mg/L
- MIC ([2]; strain 1013055, Cmpd 1 at 4 μg/mL in combinations): 16 mg/L
- MIC ([2]; strain 1013322, Cmpd 1 at 4 μg/mL in combinations): 16 mg/L
- MIC ([2]; strain 1014143, Cmpd 1 at 4 μg/mL in combinations): 32 mg/L
- MIC ([2]; strain 1014646, Cmpd 1 at 4 μg/mL in combinations): 16 mg/L
